Laboratory results published in patent publication US11117892B2, “Pyrrolo-pyridine derivative compound, method for preparing same, and pharmaceutical composition containing same as active ingredient for prevention or treatment of protein kinase-related diseases” (DAEGU-GYEONGBUK MEDICAL INNOVATION FOUNDATION, priority 2017, dated 2021).

Tests used:
Assay in all cases: scanMAX Kinase assay panel
Assay type in all cases: binding
Settings in all cases: read-out: % control
[1] = target: ABL1(H396P)-nonphosphorylated (Homo sapiens (Human), UniProt P00519, H396P)
How it was run: (§1)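 Using scanMAX, compound selectivity across kinases is determined. The output is % control, bounded by a DMSO control at 100% and a reference positive compound at 0%.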

BMX = BMX (Homo sapiens (Human), UniProt P51813)
How it was run: as §1

CAMK1D = CAMK1D (Homo sapiens (Human), UniProt Q8IU85)
How it was run: as §1

CDK4-cyclinD1 = CDK4-cyclinD1 (Homo sapiens (Human), UniProt P11802)
How it was run: as §1

CTK = CTK (Homo sapiens (Human), UniProt P42679)
How it was run: as §1

[2] = target: EGFR(L747-S752del, P753S) (Homo sapiens (Human), UniProt P00533, DEL747-752/P753S)
How it was run: as §1

EPHB4 = EPHB4 (Homo sapiens (Human), UniProt P54760)
How it was run: as §1

ERN1 = ERN1 (Homo sapiens (Human), UniProt O75460)
How it was run: as §1

FLT3(N841I) = FLT3(N841I) (Homo sapiens (Human), UniProt P36888, N841I)
How it was run: as §1

GRK1 = GRK1 (Homo sapiens (Human), UniProt Q15835)
How it was run: as §1

GRK3 = GRK3 (Homo sapiens (Human), UniProt P35626)
How it was run: as §1

HIPK1 = HIPK1 (Homo sapiens (Human), UniProt Q86Z02)
How it was run: as §1

HUNK = HUNK (Homo sapiens (Human), UniProt P57058)
How it was run: as §1

IGF1R = IGF1R (Homo sapiens (Human), UniProt P08069)
How it was run: as §1

INSRR = INSRR (Homo sapiens (Human), UniProt P14616)
How it was run: as §1

IRAK1 = IRAK1 (Homo sapiens (Human), UniProt P51617)
How it was run: as §1

KIT = KIT (Homo sapiens (Human), UniProt P10721)
How it was run: as §1

MAP4K4 = MAP4K4 (Homo sapiens (Human), UniProt O95819)
How it was run: as §1

MEK3 = MEK3 (Homo sapiens (Human), UniProt P46734)
How it was run: as §1

MERTK = MERTK (Homo sapiens (Human), UniProt Q12866)
How it was run: as §1

MKNK1 = MKNK1 (Homo sapiens (Human), UniProt Q9BUB5)
How it was run: as §1

MST2 = MST2 (Homo sapiens (Human), UniProt Q13188)
How it was run: as §1

NEK10 = NEK10 (Homo sapiens (Human), UniProt Q6ZWH5)
How it was run: as §1

PAK6 = PAK6 (Homo sapiens (Human), UniProt Q9NQU5)
How it was run: as §1

PIK3CA = PIK3CA (Homo sapiens (Human), UniProt P42336)
How it was run: as §1

PIK3CA(C420R) = PIK3CA(C420R) (Homo sapiens (Human), UniProt P42336, C420R)
How it was run: as §1

PIK3CA(E545K) = PIK3CA(E545K) (Homo sapiens (Human), UniProt P42336, E545K)
How it was run: as §1

PIK3CB = PIK3CB (Homo sapiens (Human), UniProt P42338)
How it was run: as §1

PIK4CB = PIK4CB (Homo sapiens (Human), UniProt Q9UBF8)
How it was run: as §1

PIM2 = PIM2 (Homo sapiens (Human), UniProt Q9P1W9)
How it was run: as §1

PRKD3 = PRKD3 (Homo sapiens (Human), UniProt O94806)
How it was run: as §1

RAF1 = RAF1 (Homo sapiens (Human), UniProt P04049)
How it was run: as §1

RET(V804L) = RET(V804L) (Homo sapiens (Human), UniProt P07949, V804L)
How it was run: as §1

RIPK5 = RIPK5 (Homo sapiens (Human), UniProt Q6XUX3)
How it was run: as §1

[3] = target: RPS6KA4(Kin.Dom.2-C-terminal) (Homo sapiens (Human), UniProt O75676)
How it was run: as §1

TLK1 = TLK1 (Homo sapiens (Human), UniProt Q9UKI8)
How it was run: as §1

TNK2 = TNK2 (Homo sapiens (Human), UniProt Q07912)
How it was run: as §1

TXK = TXK (Homo sapiens (Human), UniProt P42681)
How it was run: as §1

Sequence of EGFR(L747-S752del, P753S) (P00533 other isoform, or with tags, fused parts or gaps P753S/del L747-S752): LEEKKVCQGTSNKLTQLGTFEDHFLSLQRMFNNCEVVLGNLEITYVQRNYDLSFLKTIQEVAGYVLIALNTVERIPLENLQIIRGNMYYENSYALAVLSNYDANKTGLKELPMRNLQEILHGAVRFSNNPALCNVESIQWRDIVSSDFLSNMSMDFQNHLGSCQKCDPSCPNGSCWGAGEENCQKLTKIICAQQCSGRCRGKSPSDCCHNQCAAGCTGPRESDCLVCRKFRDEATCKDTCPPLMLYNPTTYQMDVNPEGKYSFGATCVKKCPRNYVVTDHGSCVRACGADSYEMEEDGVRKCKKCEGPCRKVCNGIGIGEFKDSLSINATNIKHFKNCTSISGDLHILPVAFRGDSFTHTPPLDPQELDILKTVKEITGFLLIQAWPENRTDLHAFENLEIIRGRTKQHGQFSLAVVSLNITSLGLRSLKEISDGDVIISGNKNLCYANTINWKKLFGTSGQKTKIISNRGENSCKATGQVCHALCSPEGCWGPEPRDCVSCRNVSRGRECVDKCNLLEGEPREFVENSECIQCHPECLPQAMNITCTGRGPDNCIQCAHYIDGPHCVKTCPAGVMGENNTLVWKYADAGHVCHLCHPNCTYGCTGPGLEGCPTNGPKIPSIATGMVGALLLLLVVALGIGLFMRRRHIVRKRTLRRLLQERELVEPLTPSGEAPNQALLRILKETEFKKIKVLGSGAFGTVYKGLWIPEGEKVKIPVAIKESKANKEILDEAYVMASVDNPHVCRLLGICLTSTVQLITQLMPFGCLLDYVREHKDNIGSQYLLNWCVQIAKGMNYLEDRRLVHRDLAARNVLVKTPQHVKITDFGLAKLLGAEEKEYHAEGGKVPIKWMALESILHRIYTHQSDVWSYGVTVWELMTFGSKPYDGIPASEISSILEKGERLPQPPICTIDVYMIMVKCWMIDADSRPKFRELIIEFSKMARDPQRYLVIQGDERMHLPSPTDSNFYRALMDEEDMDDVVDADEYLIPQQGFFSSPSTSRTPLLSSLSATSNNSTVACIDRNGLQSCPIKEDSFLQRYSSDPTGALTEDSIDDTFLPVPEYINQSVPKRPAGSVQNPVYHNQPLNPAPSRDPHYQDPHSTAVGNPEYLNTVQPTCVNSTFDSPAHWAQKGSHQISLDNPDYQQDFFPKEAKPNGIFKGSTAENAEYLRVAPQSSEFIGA
Sequence of INSRR (P14616 27-1297): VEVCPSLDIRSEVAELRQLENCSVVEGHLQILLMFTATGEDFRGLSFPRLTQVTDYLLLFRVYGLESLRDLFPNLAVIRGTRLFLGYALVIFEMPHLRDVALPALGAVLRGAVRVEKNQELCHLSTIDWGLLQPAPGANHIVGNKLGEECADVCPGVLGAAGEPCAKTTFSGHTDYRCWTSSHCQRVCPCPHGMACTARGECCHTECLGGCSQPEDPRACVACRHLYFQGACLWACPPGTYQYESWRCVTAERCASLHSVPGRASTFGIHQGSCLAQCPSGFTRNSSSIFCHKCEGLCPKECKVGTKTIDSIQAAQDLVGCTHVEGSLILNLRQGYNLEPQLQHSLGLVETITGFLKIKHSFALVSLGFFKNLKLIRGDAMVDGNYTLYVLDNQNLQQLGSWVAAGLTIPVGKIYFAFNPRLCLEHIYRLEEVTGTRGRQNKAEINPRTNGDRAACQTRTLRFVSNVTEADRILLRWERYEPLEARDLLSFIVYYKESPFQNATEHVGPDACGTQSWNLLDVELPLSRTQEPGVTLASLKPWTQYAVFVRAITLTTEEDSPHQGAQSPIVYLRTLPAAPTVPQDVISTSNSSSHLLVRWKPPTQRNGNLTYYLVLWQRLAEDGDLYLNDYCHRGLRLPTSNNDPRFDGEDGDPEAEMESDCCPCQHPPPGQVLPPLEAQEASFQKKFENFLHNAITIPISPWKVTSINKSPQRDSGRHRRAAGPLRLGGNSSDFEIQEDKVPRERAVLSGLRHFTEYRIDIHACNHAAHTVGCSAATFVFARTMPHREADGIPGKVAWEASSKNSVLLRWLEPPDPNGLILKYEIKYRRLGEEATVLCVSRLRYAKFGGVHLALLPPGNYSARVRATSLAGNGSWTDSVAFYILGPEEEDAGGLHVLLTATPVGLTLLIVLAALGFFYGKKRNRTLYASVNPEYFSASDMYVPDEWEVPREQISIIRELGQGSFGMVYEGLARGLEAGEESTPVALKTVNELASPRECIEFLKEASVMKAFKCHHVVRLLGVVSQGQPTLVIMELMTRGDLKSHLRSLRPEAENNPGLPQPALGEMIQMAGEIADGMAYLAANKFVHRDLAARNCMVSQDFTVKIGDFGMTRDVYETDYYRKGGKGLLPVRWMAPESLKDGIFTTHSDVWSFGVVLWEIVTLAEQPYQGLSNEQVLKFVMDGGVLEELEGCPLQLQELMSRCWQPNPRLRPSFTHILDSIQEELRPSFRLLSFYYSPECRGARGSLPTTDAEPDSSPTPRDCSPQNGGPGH
Sequence of MEK3 (P46734 whole entry): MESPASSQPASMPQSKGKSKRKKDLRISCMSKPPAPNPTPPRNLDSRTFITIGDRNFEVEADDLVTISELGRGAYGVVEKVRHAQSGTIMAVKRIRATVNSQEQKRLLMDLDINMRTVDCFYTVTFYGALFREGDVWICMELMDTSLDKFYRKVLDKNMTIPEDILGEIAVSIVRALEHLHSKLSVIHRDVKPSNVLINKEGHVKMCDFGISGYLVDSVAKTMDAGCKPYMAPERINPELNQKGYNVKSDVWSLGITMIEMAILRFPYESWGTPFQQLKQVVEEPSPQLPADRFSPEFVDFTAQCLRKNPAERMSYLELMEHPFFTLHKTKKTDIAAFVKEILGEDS
Sequence of IGF1R (P08069 31-1367): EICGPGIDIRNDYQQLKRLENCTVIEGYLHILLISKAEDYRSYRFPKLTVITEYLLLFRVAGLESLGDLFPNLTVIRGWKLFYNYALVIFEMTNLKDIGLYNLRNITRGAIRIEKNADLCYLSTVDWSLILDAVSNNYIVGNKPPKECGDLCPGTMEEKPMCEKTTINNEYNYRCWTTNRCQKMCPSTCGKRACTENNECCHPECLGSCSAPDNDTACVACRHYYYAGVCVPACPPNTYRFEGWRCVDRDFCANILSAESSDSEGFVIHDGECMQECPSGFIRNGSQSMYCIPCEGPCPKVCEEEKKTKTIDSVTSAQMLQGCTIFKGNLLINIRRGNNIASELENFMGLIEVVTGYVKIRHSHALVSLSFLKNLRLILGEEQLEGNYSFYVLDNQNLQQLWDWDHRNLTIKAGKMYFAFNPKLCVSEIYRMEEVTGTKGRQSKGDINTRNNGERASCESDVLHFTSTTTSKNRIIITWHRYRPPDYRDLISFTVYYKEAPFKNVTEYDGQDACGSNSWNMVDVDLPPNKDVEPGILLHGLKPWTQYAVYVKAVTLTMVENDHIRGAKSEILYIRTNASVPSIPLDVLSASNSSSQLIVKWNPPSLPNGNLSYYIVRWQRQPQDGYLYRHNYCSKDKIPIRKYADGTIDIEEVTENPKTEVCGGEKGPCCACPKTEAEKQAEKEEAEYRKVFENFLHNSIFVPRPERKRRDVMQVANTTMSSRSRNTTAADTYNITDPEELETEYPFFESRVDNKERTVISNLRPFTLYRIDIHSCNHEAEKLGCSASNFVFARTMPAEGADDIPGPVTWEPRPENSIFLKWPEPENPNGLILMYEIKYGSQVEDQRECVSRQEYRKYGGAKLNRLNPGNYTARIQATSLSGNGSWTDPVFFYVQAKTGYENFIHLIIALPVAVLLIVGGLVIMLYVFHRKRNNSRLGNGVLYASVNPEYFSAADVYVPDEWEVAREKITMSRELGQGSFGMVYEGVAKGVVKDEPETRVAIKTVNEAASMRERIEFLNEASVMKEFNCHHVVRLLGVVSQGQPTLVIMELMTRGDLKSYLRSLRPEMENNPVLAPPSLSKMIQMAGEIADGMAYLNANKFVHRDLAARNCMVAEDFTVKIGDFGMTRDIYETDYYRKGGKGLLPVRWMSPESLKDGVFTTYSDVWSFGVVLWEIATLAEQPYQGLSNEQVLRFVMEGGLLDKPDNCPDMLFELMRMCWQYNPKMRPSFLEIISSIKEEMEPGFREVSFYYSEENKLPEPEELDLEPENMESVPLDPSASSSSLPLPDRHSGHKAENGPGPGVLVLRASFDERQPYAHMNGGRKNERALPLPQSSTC
Sequence of RAF1 (P04049 whole entry): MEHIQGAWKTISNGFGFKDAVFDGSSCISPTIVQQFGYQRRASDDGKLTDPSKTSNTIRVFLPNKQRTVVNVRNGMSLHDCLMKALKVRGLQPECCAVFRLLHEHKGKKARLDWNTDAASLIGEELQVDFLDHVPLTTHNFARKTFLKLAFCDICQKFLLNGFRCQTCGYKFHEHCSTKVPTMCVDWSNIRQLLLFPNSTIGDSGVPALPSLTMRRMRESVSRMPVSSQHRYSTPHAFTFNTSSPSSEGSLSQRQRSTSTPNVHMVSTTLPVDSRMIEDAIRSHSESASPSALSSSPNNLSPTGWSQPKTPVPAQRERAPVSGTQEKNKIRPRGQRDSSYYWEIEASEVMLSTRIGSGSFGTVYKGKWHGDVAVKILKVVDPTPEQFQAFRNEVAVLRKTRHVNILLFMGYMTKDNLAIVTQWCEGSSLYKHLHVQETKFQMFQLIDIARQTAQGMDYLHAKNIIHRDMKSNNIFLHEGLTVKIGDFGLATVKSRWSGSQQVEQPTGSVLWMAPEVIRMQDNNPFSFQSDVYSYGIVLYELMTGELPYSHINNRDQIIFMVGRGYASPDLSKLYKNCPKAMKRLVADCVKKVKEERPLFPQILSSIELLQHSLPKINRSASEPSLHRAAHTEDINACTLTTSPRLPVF
Sequence of RPS6KA4(Kin.Dom.2-C-terminal) (O75676 411-674): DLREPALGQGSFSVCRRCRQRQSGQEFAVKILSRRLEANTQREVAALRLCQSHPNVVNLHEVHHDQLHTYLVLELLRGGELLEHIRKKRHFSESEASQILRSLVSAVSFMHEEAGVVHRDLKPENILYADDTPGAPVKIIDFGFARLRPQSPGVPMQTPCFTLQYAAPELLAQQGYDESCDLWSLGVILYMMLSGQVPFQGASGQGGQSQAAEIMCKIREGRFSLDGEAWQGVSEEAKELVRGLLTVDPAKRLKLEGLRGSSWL

SMILES	remaining binding at 1 µM [1]	remaining binding at 1 µM (BMX)	remaining binding at 1 µM (CAMK1D)	remaining binding at 1 µM (CDK4-cyclinD1)	remaining binding at 1 µM (CTK)	remaining binding at 1 µM [2]	remaining binding at 1 µM (EPHB4)	remaining binding at 1 µM (ERN1)	remaining binding at 1 µM (FLT3(N841I))	remaining binding at 1 µM (GRK1)	remaining binding at 1 µM (GRK3)	remaining binding at 1 µM (HIPK1)	remaining binding at 1 µM (HUNK)	remaining binding at 1 µM (IGF1R)	remaining binding at 1 µM (INSRR)	remaining binding at 1 µM (IRAK1)	remaining binding at 1 µM (KIT)	remaining binding at 1 µM (MAP4K4)	remaining binding at 1 µM (MEK3)	remaining binding at 1 µM (MERTK)	also measured
CCNc1cc(Nc2ccc(C(=O)N3CCC(N4CCOCC4)CC3)cc2OC)nc2[nH]cc(C#N)c12 [Example 18, 4-(ethylamino)-6-((2-methoxy-4-(4-morpholinopiperidine-1-carbonyl)phenyl)amino)-1H-pyrrolo[2,3-b]pyridine-3-carbonitrile]	89%	75%	31%	100%	100%	92%	100%	24%	89%	81%	58%	63%	57%	74%	24%	79%	49%	100%	4.3%	100%	remaining binding at 1 µM (MKNK1): 93%; remaining binding at 1 µM (MST2): 95%; remaining binding at 1 µM (NEK10): 73%; remaining binding at 1 µM (PAK6): 98%; remaining binding at 1 µM (PIK3CA): 100%; remaining binding at 1 µM (PIK3CA(C420R)): 87%; remaining binding at 1 µM (PIK3CA(E545K)): 92%; remaining binding at 1 µM (PIK3CB): 89%; remaining binding at 1 µM (PIK4CB): 80%; remaining binding at 1 µM (PIM2): 96%; remaining binding at 1 µM (PRKD3): 9.6%; remaining binding at 1 µM (RAF1): 97%; remaining binding at 1 µM (RET(V804L)): 97%; remaining binding at 1 µM (RIPK5): 18%; remaining binding at 1 µM [3]: 0.3%; remaining binding at 1 µM (TLK1): 100%; remaining binding at 1 µM (TNK2): 92%; remaining binding at 1 µM (TXK): 99%
CCNc1cc(Nc2ccc(C(=O)N3CCC(N4CCOCC4)CC3)cc2OC)nc2[nH]cc(C(F)(F)F)c12 [Example 57, (4-((4-(ethylamino)-3-(trifluoromethyl)-1H-pyrrolo[2,3-b]pyridin-6-yl)amino)-3-methoxyphenyl) (4-morpholinopiperidin-1-yl)methanone]	68%	89%	73%	95%	84%	97%	88%	61%	85%	94%	100%	54%	51%	71%	60%	100%	91%	100%	81%	91%	remaining binding at 1 µM (MKNK1): 100%; remaining binding at 1 µM (MST2): 100%; remaining binding at 1 µM (NEK10): 100%; remaining binding at 1 µM (PAK6): 78%; remaining binding at 1 µM (PIK3CA): 87%; remaining binding at 1 µM (PIK3CA(C420R)): 100%; remaining binding at 1 µM (PIK3CA(E545K)): 73%; remaining binding at 1 µM (PIK3CB): 100%; remaining binding at 1 µM (PIK4CB): 100%; remaining binding at 1 µM (PIM2): 98%; remaining binding at 1 µM (PRKD3): 78%; remaining binding at 1 µM (RAF1): 72%; remaining binding at 1 µM (RET(V804L)): 91%; remaining binding at 1 µM (RIPK5): 79%; remaining binding at 1 µM [3]: 100%; remaining binding at 1 µM (TLK1): 73%; remaining binding at 1 µM (TNK2): 86%; remaining binding at 1 µM (TXK): 85%
